Results published in patent US9708370B2, “Azapeptides as CD36 binding compounds” (VALORISATION-RECHERCHE, LIMITED PARTNERSHIP, priority 2007, dated 2017).
Entries after “also recorded” stand apart in the source; their conditions may differ. Starred links: 1 amine or outer side, 2 acyl side, 3 side chain; linkers in the order of their positions; H or OH if unused. Non-standard residues stand in square brackets, D forms with d. Residues, ends and D or L forms follow the SMILES beside them. azaTyr = O=C(N(Cc1ccc(O)cc1)N[*:1])[*:2]

How the values were obtained:
[1] = test system: laser injury induced choroidal neovascularisation; test: Inhibition of choroidal neovascularisation in vivo, laser injury model; parameters: species or system mice
From the text: The standard model of choroidal neovascularisation is the laser injury induced neovascularisation (47). In this model, which is applicable to rodents and primates, a laser beam is used to disrupt the RPE and the Bruchs membrane that separates the choroidal vasculature from the subretinal space. The following local inflammatory reaction in deep retina and choroid leads to a localized subretinal neovascularisation in a similar manner as that observed in AMD. This local neovascularisation can be quantified on flatmounts of RPE/choroid/sclera. The antiangiogenic effect of DBG178 on subretinal neovascularisation was tested by injecting intravitreally at effective concentration of 10^−7 to 10^−6 M within the eye and compared to that of intravitreal injection of saline used as a control.
Ten-week old C56/Bl6+/+ and CD36 null mice of C57Bl/6 background were anesthetized by intramuscular injection of ketamine (50 mg/kg) and xylazine (10 mg/kg). Pupils were fully dilated with 1% tropicamide. Coverslips positioned on the mouse cornea were used as a contact glass. Laser-coagulations were performed 1 to 2 disc diameters away from the papillae using an Argon laser (532 nm) mounted on a slit lamp (400 mW, 50 ms and 50 μm). […] The RPE/choroids were radially incised, flatmounted and viewed using a fluorescence microscope (BX51; Olympus). CNV were measured on photographs using Scion image analysis software.

[2] = test system: vascular sprouting of aortic endothelium (aortic rings); test: Inhibition of microvascular sprouting from Matrigel-embedded aortic explants; assay type: cell-based, mice
From the text: FIG. 1 illustrates disruption of vascular sprouting of aortic endothelium by azapeptide compound DBG178. Sprouting aortic endothelium (Von Willebrand factor positive) expressing CD36 is shown in the upper row of FIG. 1a. Vascular sprouting of aortic rings from C57BL/6 and CD36 null mice in the presence of DBG 178 at 10^−7M is shown in the lower row of FIG. 1a. Histograms of microvascular sprouts areas (mean±s.e.m) from aortic explants of C57BL/6 and CD36 null mice exposed to DBG concentrations from 10^−8 to 10^−6 M p<0.01 compared with control (Ctl) is shown in FIG. 1b.
Aortas were excised from 10-week-old male C57/Bl6+/+ and CD36−/− mice of C57/Bl6 background. The fibroadipose tissue was removed and aortas were sectioned into 2-mm-long cross-sections. The +/+ and −/− rings were covered by 50 μl of Matrigel and cultured for 4 days in EGM-2 medium (Clonetics Corp.). Explants were then exposed to vehicle alone or in presence of an azapeptide prototype DBG178 at the indicated concentrations (10^−8 to 10^−6 M) from day 4 to day 6 of culture in EGM-2 medium. Pictures of each individual explant were taken at day 4 and day 6 and EC growth was measured as the surface covered at day 6 minus the surface covered at day 4 Data were subject to analysis of variance (ANOVA) followed by Dunnet's post test to test for differences among groups. Outgrowing cells were characterized by double-labelling with monoclonal vWF antibody (1:100, Dako) and polyclonal CD36 (1:100, Santa Cruz) after acetone fixation using their respective alexa coupled secondary antibodies.

## C[C@H](NC(=O)[C@@H](Cc1c[nH]c2ccccc12)NC(=O)[C@@H](N)Cc1cnc[nH]1)C(=O)NN(Cc1ccc(O)cc1)C(=O)N[C@H](Cc1ccccc1)C(=O)N[C@@H](CCCCN)C(N)=O [DBG178p, His-D-Trp-Ala-azaTyr-D-Phe-Lys-NH2] (H-H[dW]A[azaTyr][dF]K-NH2)
[1]; C57BL/6 mice, intravitreal injection 3 and 7 days after laser injury, 10^−7 and 10^−6 M within the eye
  inhibition of the neovascular response: more than 50%
[1]; eye of CD36 null mice, intravitreal injection
  effect on the neovascular response: no effect
[2]; aortic rings from C57BL/6 mice, 10^−7 to 10^−6 M
  inhibition of vascular sprouting of aortic rings: disrupt significantly; also recorded: significantly inhibited
[2]; aortic rings from CD36 null mice
  inhibitory effect on vascular sprouting of aortic rings: not detected
